This note sets out measurements from BindingDB's records for doi:10.1021/jm00159a020 (1986).

This assay can be described thus: Potency against rat brain adenosine A1 receptor at 10 uM.

Compound `CCCCN(C)C(=O)[C@H]1OC(n2cnc3c(NC(CC)CC)ncnc32)[C@H](O)[C@@H]1O` (stereo partly specified) displayed a % displacement at 10 µM of 10%.
